Measurements taken from US8221993B2, “Methods of detecting methyl transferase activity and methods of screening for methyl transferase activity modulators” (Onco Therapy Science, Inc., priority 2004, dated 2012).

What was measured:
Format in all cases: biochemical
ZNFN3A1 [1] = target: T1, ZNFN3A1 (Homo sapiens, UniProt Q9H7B4, K13N); assay: In vitro histone H3-K4 methyltransferase assay, peptide competition; parameters: made in house; host or cells: transfected mammalian cells (293T), anti-Flag immunoprecipitate; settings: recombinant histone H3, SAM and HSP90A, addition of competitor peptide, FIG. 2b
T1 sequence (Q9H7B4 1-428 K13N): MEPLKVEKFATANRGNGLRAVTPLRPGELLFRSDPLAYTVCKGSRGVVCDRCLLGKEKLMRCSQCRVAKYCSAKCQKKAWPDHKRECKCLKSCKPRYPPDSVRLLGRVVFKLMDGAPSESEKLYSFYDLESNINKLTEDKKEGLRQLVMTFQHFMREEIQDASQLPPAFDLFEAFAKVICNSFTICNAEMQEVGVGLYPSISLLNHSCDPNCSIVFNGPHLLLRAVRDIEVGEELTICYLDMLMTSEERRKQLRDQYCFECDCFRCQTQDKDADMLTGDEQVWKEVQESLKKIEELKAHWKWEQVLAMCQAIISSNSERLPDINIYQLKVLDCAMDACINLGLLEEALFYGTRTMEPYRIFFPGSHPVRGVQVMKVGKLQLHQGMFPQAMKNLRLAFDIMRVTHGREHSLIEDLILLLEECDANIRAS
Method: H3-K4 specific methyltransferase activity was examined by western blot analysis of recombinant Xenopus H3 protein (UBI) incubated with the immunoprecipitants in the presence of 20 μM unlabeled S-adenosyl-L-methionine (SAM) and 2 μg of HSP90A for 1 hr at 30° C., using antibodies against mono-methylated (Abcam; ab8895), di-methylated (Abcam; ab7766), tri-methylated (Abcam; ab8580) H3-K4, total H3 (Abcam; ab1791), or tri-methylated H3-K9 (UBI; 07523). Lysates of cells transfected with plasmid expressing Flag-tagged wild-type ZNFN3A1, mutant ZNFN3A1, SET7/9, SUV39H1, or mock were immunoprecipitated with anti-Flag antibody (Sigma). Peptides to di-methylated H3-K4 (Abcam; ab7768, ARTK-Me2-QTAR-GGC) and di-methylated H3-K9 (Abcam; ab1772, QTARK-Me2-ST-GGC) were used for competition assay. Recombinant ZNFN3A1 was expressed in E. coli bacteria with plasmids expressing GST-fused ZNFN3A1 or in Sf9 cells with plasmids expressing HA-tagged ZNFN3A1. H3-methyltransferase activity was also analyzed in the presence or absence of 0.04 U SAHH (Sigma) using immunoprecipitated ZNFN3A1 protein or recombinant ZNFN3A1 purified from Sf9 cells.
Since proteins containing SET domain play a crucial role in methylation of histone H3 lysine 4 (H3-K4) or lysine 9 (H3-K9), we investigated whether ZNFN3A1 has an ability to methylate H3-K4 or H3-K9. […]

ZNFN3A1 [2] = target: T1, ZNFN3A1; assay: In vitro HMTase assay of SET domain of ZNFN3A1 with/without recombinant HSP90A; parameters: made in house; host or cells: transfected mammalian cells (293T), anti-Flag immunoprecipitate; settings: wild-type SET of ZNFN3A1, SAM and histones, with recombinant HSP90A, FIG. 1c lane 4 and 5
Method: (§1) 293T cells were transfected with plasmid expressing Flag-tagged ZNFN3A1 (pFLAG-CMV-ZNFN3A1), SET7 protein or mock, and purified tagged proteins by immunoprecipitation with anti-Flag antibody. In vitro HMTase assay was performed according to the protocol (1) with a slight modification. Briefly, immunoprecipitated protein was incubated with 25 μg of free histones (mixture of H3, H2B, H2A and H4; Roche) as substrates and 2.5 μCi S-adenosyl-L-[methyl-^3H] methionine as methyl donor in a mixture of 40 μl of methylase activity buffer (50 mM Tris-HCl pH 8.5, 20 mM KCl, 10 mM MgCl2, 10 mM β-mercaptoethanol, 250 mM sucrose), for 60 min at 37° C. […]
Proteins containing the wild-type SET domain of ZNFN3A1 and two forms of mutant protein that lacked one of the two regions were prepared, and cross-linked equal amount of each protein with [^3H]-labeled SAM by exposure to UV-radiation. […] The wild-type SET or control recombinant protein of SET7 was further incubated with [^3H]-labeled SAM and a mixture of histones as substrates, and labeled protein after the separation on SDS-PAGE was measured. As expected, a strong band corresponding to [^3H]-labeled histone H3 protein by the control SET7 (FIG. 1c, lane 3) was detected. When substrates were incubated with the wild-type SET of ZNFN3A1, a faint band corresponding to labeled histone H3 was detected, which was not observed with mock (FIG. 1c, lane 1 and 2). […]

ZNFN3A1 [3] = target: T1, ZNFN3A1; assay: In vitro histone H3 methyltransferase activity in the presence or absence of SAHH; parameters: made in house; host or cells: 293T cells transfected with pFLAG-CMV-ZNFN3A1, anti-Flag immunoprecipitate; settings: presence versus absence of SAHH, FIG. 3d
Method: as §1
H3-K4 specific methyltransferase activity was examined by western blot analysis of recombinant Xenopus H3 protein (UBI) incubated with the immunoprecipitants in the presence of 20 μM unlabeled S-adenosyl-L-methionine (SAM) and 2 μg of HSP90A for 1 hr at 30° C., using antibodies against mono-methylated (Abcam; ab8895), di-methylated (Abcam; ab7766), tri-methylated (Abcam; ab8580) H3-K4, total H3 (Abcam; ab1791), or tri-methylated H3-K9 (UBI; 07523). […] H3-methyltransferase activity was also analyzed in the presence or absence of 0.04 U SAHH (Sigma) using immunoprecipitated ZNFN3A1 protein or recombinant ZNFN3A1 purified from Sf9 cells. […]

ARTK-Me2-QTAR-GGC [di-methylated H3-K4 peptides]
di- and tri-methylation of H3-K4 by wild-type ZNFN3A1 (ZNFN3A1 [1]): completely inhibited

HSP90A: recombinant 90-kD heat shock protein, interacting protein of ZNFN3A1
methyl transferase activity onto histone H3 (ZNFN3A1 [2]): enhanced methyl transferase activity

QTARK-Me2-ST-GGC [di-methylated H3-K9 peptides]
di- and tri-methylation of H3-K4 by wild-type ZNFN3A1 (ZNFN3A1 [1]): unaffected

S-adenosyl homocysteine hydrolase [SAHH]
H3 methyltransferase activity of Flag-tagged ZNFN3A1 (ZNFN3A1 [3]): significantly higher
